Assay results from US8604229B2, “Lipoxin analogs and methods for the treatment of periodontal disease” (University of Southern California, priority 2000, dated 2013).

How the values were obtained:
PGE2 production = assay: PGE2 levels in air pouch exudates (EIA) after P. gingivalis; assay type: in vivo, BALB/c mice
Description: (§1) Six to eight week old male BALB/c mice were obtained from Taconic Farms (Germantown, N.Y.). Air pouches were raised on the dorsum by s.c. injection of 3 ml of sterile air on day 0 and day 3, and all experiments were carried out on day 6 (Sin, Y. M., et al. (1986) Ann. Rheum. Dis. 45, 873). Individual air pouches (one per mouse) were injected with either vehicle alone (0.1% ethanol), with 10 μg 15-R/S-methyl-LXA4-me or with 10 μg 15-epi-16-phenoxy-LXA4-me, followed by 500 μl of sterile PBS or ˜10^5 cells of P. gingivalis strain A7436 (OD600 0.9-1.0) originally obtained from the CF of a patient diagnosed with periodontitis. Mice were sacrificed 4 hr post-injection and individual air pouches were lavaged three times with sterile PBS (3 ml for each lavage) (Sin, Y. M. et al. (1986) Ann. Rheum. Dis. 45, 873; Hachicha, M., et al. (1999) J. Exp. Med. 189, 1923). […] Air pouch exudates were assessed for PGE2 using an enzyme immunoassay (EIA) kit (Cayman Chemical Co., Ann Arbor, Mich. [cross-reactivities in the PGE2 EIA kit were <0.04% for 6-keto PGF1α and <0.01% for LTB4, thromboxane B2 and arachidonic acid]). […]
Since PGE2 is associated with loss of attachment and bone loss in periodontal disease (Offenbacher, S., et al. (1992) J. Periodontal Res. 27, 207), we determined PGE2 levels in the air pouch exudates. […] Also, the expression of COX-2 was evaluated in exudate leukocytes. […]

COX-2 mRNA = assay: COX-2 expression in air pouch exudate leukocytes (northern blot); assay type: in vivo, BALB/c mice; conditions: within the air pouch, P. gingivalis-injected mice
Description: as §1
Since PGE2 is associated with loss of attachment and bone loss in periodontal disease (Offenbacher, S., et al. (1992) J. Periodontal Res. 27, 207), we determined PGE2 levels in the air pouch exudates. […]

## CCCCCC(C)(O)/C=C/C=C\C=C\C=C\[C@@H](O)[C@@H](O)CCCC(=O)O (stereo partly drawn) [15-R/S-methyl LXA4]
PGE2 production; 10 μg/pouch, P. gingivalis-injected murine air pouch, 4 hr
  decrease of PGE2 levels in the exudates: ≤ 75%
PGE2 production; murine air pouch exudates
  P. gingivalis-induced PGE2 production in murine air pouch (in words): inhibits
COX-2 mRNA
  overall expression of COX-2 in exudates: decreased
